Source: patent US9505786B2, “Substituted annulated triazines and use thereof” (BAYER INTELLECTUAL PROPERTY GMBH, priority 2012, dated 2016)

Key:
[1] = test system: recombinant guanylate cyclase reporter cell line; experiment: Effect on a recombinant guanylate cyclase reporter cell line; assay type: cell-based
Procedure: B-2. Effect on a Recombinant Guanylate Cyclase Reporter Cell Line
The cellular activity of the compounds according to the invention is determined using a recombinant guanylate cyclase reporter cell line, as described in F. Wunder et al., Anal. Biochem. 339, 104-112 (2005).

[2] = target: human phosphodiesterase 5 (PDE 5) (Homo sapiens (Human), UniProt O76074); experiment: Inhibition of human phosphodiesterase 5 (PDE 5), SPA assay; assay type: biochemical; details: PDE 5 preparation from human platelets, [8-3H] cGMP substrate
Procedure: B-6. Inhibition of Human Phosphodiesterase 5 (PDE 5)
PDE 5 preparations are obtained from human platelets by disruption (Microfluidizer®, 800 bar, 3 passes), followed by centrifugation (75 000 g, 60 min, 4° C.) and ion exchange chromatography of the supernatant on a Mono Q 10/10 column (linear sodium chloride gradient, elution with a 0.2-0.3M solution of sodium chloride in buffer (20 mM Hepes pH 7.2, 2 mM magnesium chloride). Fractions having PDE 5 activity are combined (PDE 5 preparation) and stored at −80° C.
To determine their in vitro action on human PDE 5, the test substances are dissolved in 100% DMSO and serially diluted. Typically, dilution series (1:3) from 200 μM to 0.091 μM are prepared (resulting final concentrations in the test: 4 μM to 0.0018 μM). In each case 2 μl of the diluted substance solutions are placed into the wells of microtitre plates (Isoplate-96/200W; Perkin Elmer). Subsequently, 50 μl of a dilution of the above-described PDE 5 preparation are added. The dilution of the PDE 5 preparation is chosen such that during the later incubation less than 70% of the substrate are converted (typical dilution: 1:100; dilution buffer: 50 mM Tris/hydrochloric acid pH 7.5, 8.3 mM magnesium chloride, 1.7 mM EDTA, 0.2% BSA). The substrate, [8-^3H] cyclic guanosine-3′,5′-monophosphate (1 μCi/μl; Perkin Elmer) is diluted 1:2000 with assay buffer (50 mM tris/hydrochloric acid pH 7.5, 8.3 mM magnesium chloride, 1.7 mM EDTA) to a concentration of 0.0005 μCi/μl. By addition of 50 μl (0.025 μCi) of the diluted substrate, the enzyme reaction is finally started. The test mixtures are incubated at room temperature for 60 min and the reaction is stopped by adding 25 μl of a suspension of 18 mg/ml yttrium scintillation proximity beads in water (phosphodiesterase beads for SPA assays, RPNQ 0150, Perkin Elmer). The microtitre plates are sealed with a film and left to stand at room temperature for 60 min. Subsequently, the plates are analysed for 30 s per well in a Microbeta scintillation counter (Perkin Elmer). IC50 values are determined using the graphic plot of the substance concentration against percentage PDE 5 inhibition.

| SMILES | MEC (minimum effective concentration) [1] [nM] | IC50 [2] [nM] |
| --- | --- | --- |
| CC1(C)C(=O)Nc2nc(-c3nn(Cc4ccccc4F)c4ncccc34)nc(C#CC(=O)O)c21 [Example 62, 3-{2-[1-(2-Fluorobenzyl)-1H-pyrazolo[3,4-b]pyridin-3-yl]-5,5-dimethyl-6-oxo-6,7-dihydro-5H-pyrrolo[2,3-d]pyrimidin-4-yl}prop-2-ynoic acid] | 30 | – |
| CC1(C)C(=O)Nc2nc(-c3nn(Cc4ccccc4F)c4nc(C(F)(F)F)ccc34)nnc21 [Example 19, 3-[1-(2-Fluorobenzyl)-6-(trifluoromethyl)-1H-pyrazolo[3,4-b]pyridin-3-yl]-7,7-dimethyl-5,7-dihydro-6H-pyrrolo[2,3-e][1,2,4]triazin-6-one] | 1000 | 38 |
| CCOC(=O)C1C(=O)Nc2nc(-c3nn(Cc4ccccc4F)c4ncccc34)nnc21 (racemic) [Example 25, (rac) Ethyl 3-[1-(2-fluorobenzyl)-1H-pyrazolo[3,4-b]pyridin-3-yl]-6-oxo-6,7-dihydro-5H-pyrrolo[2,3-e][1,2,4]triazine-7-carboxylate] | 100 | 1500 |
| CC1(C)C(=O)Nc2nc(-c3nn(Cc4ccccc4F)c4ncc(F)cc34)nc(CNS(=O)(=O)C3CC3)c21 [Example 55, N-({2-[5-Fluoro-1-(2-fluorobenzyl)-1H-pyrazolo[3,4-b]pyridin-3-yl]-5,5-dimethyl-6-oxo-6,7-dihydro-5H-pyrrolo[2,3-d]pyrimidin-4-yl}methyl)cyclopropanesulphonamide] | 30 | 190 |
| C=CCCC1(C)C(=O)Nc2nc(-c3nn(Cc4ccccc4F)c4ncccc34)nnc21 (racemic) [Example 23, (rac) (7S)-7-(But-3-en-1-yl)-3-[1-(2-fluorobenzyl)-1H-pyrazolo[3,4-b]pyridin-3-yl]-7-methyl-5,7-dihydro-6H-pyrrolo[2,3-e][1,2,4]triazin-6-one] | 30 | 140 |
| CC1(CC2CC2)C(=O)Nc2nc(-c3nn(Cc4ccccc4F)c4ncc(F)cc34)nnc21 (racemic) [Example 5-2, 7-(Cyclopropylmethyl)-3-[5-fluoro-1-(2-fluorobenzyl)-1H-pyrazolo[3,4-b]pyridin-3-yl]-7-methyl-5,7-dihydro-6H-pyrrolo[2,3-e][1,2,4]triazin-6-one] | 300 | – |
| Cc1nc2c(cc1F)c(-c1nnc3c(n1)NC(=O)C3(C)C)nn2Cc1ccccc1F [Example 21, 3-[5-Fluoro-1-(2-fluorobenzyl)-6-methyl-1H-pyrazolo[3,4-b]pyridin-3-yl]-7,7-dimethyl-5,7-dihydro-6H-pyrrolo[2,3-e][1,2,4]triazin-6-one] | 30 | 22 |
| CCOC(=O)C#Cc1nc(-c2nn(Cc3ccccc3F)c3ncccc23)nc2c1C(C)(C)C(=O)N2 [Example 53, Ethyl 3-{2-[1-(2-fluorobenzyl)-1H-pyrazolo[3,4-b]pyridin-3-yl]-5,5-dimethyl-6-oxo-6,7-dihydro-5H-pyrrolo[2,3-d]pyrimidin-4-yl}prop-2-ynoate] | 100 | 41 |
| CCC1(C)C(=O)Nc2nc(-c3nn(Cc4ccccc4F)c4ncc(F)cc34)nnc21 (racemic) [Example 7-1, 7-Ethyl-3-[5-fluoro-1-(2-fluorobenzyl)-1H-pyrazolo[3,4-b]pyridin-3-yl]-7-methyl-5,7-dihydro-6H-pyrrolo[2,3-e][1,2,4]triazin-6-one] | 100 | – |
| CC1(C)C(=O)Nc2nc(-c3nn(Cc4ccccc4F)c4ncccc34)nc(CNS(C)(=O)=O)c21 [Example 24, N-({2-[1-(2-Fluorobenzyl)-1H-pyrazolo[3,4-b]pyridin-3-yl]-5,5-dimethyl-6-oxo-6,7-dihydro-5H-pyrrolo[2,3-d]pyrimidin-4-yl}methyl)methanesulphonamide] | 30 | 48 |
| CC1(C)C(=O)Nc2nc(-c3nn(Cc4ccccc4F)c4ncccc34)nc(CC(N)=O)c21 [Example 61, 2-{2-[1-(2-Fluorobenzyl)-1H-pyrazolo[3,4-b]pyridin-3-yl]-5,5-dimethyl-6-oxo-6,7-dihydro-5H-pyrrolo[2,3-d]pyrimidin-4-yl}acetamide] | 30 | 15 |
| CC1(C)C(=O)Nc2nc(-c3nn(Cc4ccccc4F)c4ncccc34)nc(Cl)c21 [Example 60, 4-Chloro-2-[1-(2-fluorobenzyl)-1H-pyrazolo[3,4-b]pyridin-3-yl]-5,5-dimethyl-5,7-dihydro-6H-pyrrolo[2,3-d]pyrimidin-6-one] | 300 | – |
| Cc1nc(-c2nn(Cc3ccccc3F)c3ncccc23)nc2c1C(C)(C)C(=O)N2 [Example 22, 2-[1-(2-Fluorobenzyl)-1H-pyrazolo[3,4-b]pyridin-3-yl]-4,5,5-trimethyl-5,7-dihydro-6H-pyrrolo[2,3-d]pyrimidin-6-one] | 100 | 130 |
| CCOC(=O)/C=C/c1nc(-c2nn(Cc3ccccc3F)c3ncccc23)nc2c1C(C)(C)C(=O)N2 [Example 27, Ethyl 3-{2-[1-(2-fluorobenzyl)-1H-pyrazolo[3,4-b]pyridin-3-yl]-5,5-dimethyl-6-oxo-6,7-dihydro-5H-pyrrolo[2,3-d]pyrimidin-4-yl}acrylate] | 300 | 215 |
| CC1(C)C(=O)Nc2nc(-c3nn(Cc4ccccc4F)c4ncc(F)cc34)nc(CNC(=O)C3CC3)c21 [Example 56, N-({2-[5-Fluoro-1-(2-fluorobenzyl)-1H-pyrazolo[3,4-b]pyridin-3-yl]-5,5-dimethyl-6-oxo-6,7-dihydro-5H-pyrrolo[2,3-d]pyrimidin-4-yl}methyl)cyclopropanecarboxamide] | 30 | – |
| CCOC(=O)C1(C)CC(=O)Nc2nc(-c3nn(Cc4ccccc4F)c4ncccc34)nnc21 (centres unmarked) [Example 2, Ethyl 3-[1-(2-fluorobenzyl)-1H-pyrazolo[3,4-b]pyridin-3-yl]-8-methyl-6-oxo-5,6,7,8-tetrahydropyrido[2,3-e][1,2,4]triazine-8-carboxylate] | 300 | 490 |
| CC1(C)C(=O)Nc2nc(-c3nn(Cc4ccccc4F)c4ncc(F)cc34)nc(CN3CCCC3=O)c21 [Example 54, 2-[5-Fluoro-1-(2-fluorobenzyl)-1H-pyrazolo[3,4-b]pyridin-3-yl]-5,5-dimethyl-4-[(2-oxopyrrolidin-1-yl)methyl]-5,7-dihydro-6H-pyrrolo[2,3-d]pyrimidin-6-one] | 100 | 145 |
| CCC1(C)C(=O)Nc2nc(-c3nn(Cc4ccccc4F)c4ncc(F)cc34)nnc21 (racemic) [Example 7-2, 7-Ethyl-3-[5-fluoro-1-(2-fluorobenzyl)-1H-pyrazolo[3,4-b]pyridin-3-yl]-7-methyl-5,7-dihydro-6H-pyrrolo[2,3-e][1,2,4]triazin-6-one] | 100 | – |
| CC1(CC2CC2)C(=O)Nc2nc(-c3nn(Cc4ccccc4F)c4ncc(F)cc34)nnc21 (racemic) [Example 5-1, 7-(Cyclopropylmethyl)-3-[5-fluoro-1-(2-fluorobenzyl)-1H-pyrazolo[3,4-b]pyridin-3-yl]-7-methyl-5,7-dihydro-6H-pyrrolo[2,3-e][1,2,4]triazin-6-one] | 100 | – |
| CC1(CC(=O)O)C(=O)Nc2nc(-c3nn(Cc4ccccc4F)c4ncccc34)nnc21 (racemic) [Example 26, (rac) {3-[1-(2-Fluorobenzyl)-1H-pyrazolo[3,4-b]pyridin-3-yl]-7-methyl-6-oxo-6,7-dihydro-5H-pyrrolo[2,3-e][1,2,4]triazin-7-yl}acetic acid] | 300 | 3400 |
| CC(C)(O)CCc1nc(-c2nn(Cc3ccccc3F)c3ncccc23)nc2c1C(C)(C)C(=O)N2 [Example 59, 2-[1-(2-Fluorobenzyl)-1H-pyrazolo[3,4-b]pyridin-3-yl]-4-(3-hydroxy-3-methylbutyl)-5,5-dimethyl-5,7-dihydro-6H-pyrrolo[2,3-d]pyrimidin-6-one] | 300 | – |
| CC(C)(C)OC(=O)C#Cc1nc(-c2nn(Cc3ccccc3F)c3ncccc23)nc2c1C(C)(C)C(=O)N2 [Example 50, tert-Butyl 3-{2-[1-(2-fluorobenzyl)-1H-pyrazolo[3,4-b]pyridin-3-yl]-5,5-dimethyl-6-oxo-6,7-dihydro-5H-pyrrolo[2,3-d]pyrimidin-4-yl}prop-2-ynoate] | 300 | – |
